T/C data for nine compounds are collected here from PubChem BioAssay AID254 (DTP/NCI, 2004).

In this experiment the test system is L1210 leukemia iv in BDF1 mice, survival T/C. Description: NCI In Vivo Anticancer Drug Screen. Data for tumor model L1210 Leukemia (intravenous) in B6D2F1 (BDF1) mice. Particulars: higher = longer survival. On the procedure:
The antitumor activity of compounds was measured in mice bearing transplantable tumors. Survival or tumor size were measured and the results are expressed as the measurement made in the treated group (T) divided by the measurement made in the vehicle treated control group (C). The tumor model used in this assay is L1210 Leukemia (intravenous) in B6D2F1 (BDF1) mice

[1] abbreviates: endpoint: mean survival time, dose: 33.0 mg/kg/injection, schedule: Q01DX001 (ip), vehicle: other.

Where “and” joins values, the source holds several entries; their conditions need not be identical. Identical values can stand only once. Inconclusive results and toxic doses are left out.

Regarding `NC(=O)c1csc(C2OC(CO)C(O)C2O)n1` (stereo not drawn), the T/C by setting is: (endpoint: median survival time, dose: 330.0 mg/kg/injection, schedule: Q01DX009 (ip), vehicle: water) 241 % of control; (endpoint: median survival time, dose: 500.0 mg/kg/injection, schedule: Q01DX009 (ip), vehicle: water) 265 % of control; (endpoint: median survival time, dose: 750.0 mg/kg/injection, schedule: Q01DX009 (ip), vehicle: water) 268 % of control.
With `CC(=O)OC1CCC(NC(=O)N(CCF)N=O)CC1` (stereo not drawn), the T/C was 175 % of control (endpoint: mean survival time, dose: 16.0 mg/kg/injection, schedule: Q01DX001 (ip), vehicle: other); 248 % of control (endpoint: mean survival time, dose: 24.0 mg/kg/injection, schedule: Q01DX001 (ip), vehicle: other); 441 % of control (endpoint: mean survival time, dose: 32.0 mg/kg/injection, schedule: Q01DX001 (oral), vehicle: other); 473 % of control (endpoint: mean survival time, dose: 36.0 mg/kg/injection, schedule: Q01DX001 (ip), vehicle: other).
For `NC(=S)N/N=C/c1ccccn1`, the T/C was 105 % of control (endpoint: mean survival time, dose: 5.0 mg/kg/injection, schedule: Q01HX008 (ip), vehicle: other); 166 % of control (endpoint: mean survival time, dose: 5.0 mg/kg/injection, schedule: Q03HX008 (ip), vehicle: other); 176 % of control (endpoint: mean survival time, dose: 8.0 mg/kg/injection, schedule: Q01DX008 (ip), vehicle: other); 208 % of control (endpoint: mean survival time, dose: 8.0 mg/kg/injection, schedule: Q03HX008 (ip), vehicle: other); 176 % of control (endpoint: mean survival time, dose: 8.0 mg/kg/injection, schedule: Q06HX008 (ip), vehicle: other); 200 % of control (endpoint: mean survival time, dose: 8.0 mg/kg/injection, schedule: Q12HX008 (ip), vehicle: other). In addition, the T/C was 111 % of control (endpoint: mean survival time, dose: 22.0 mg/kg/injection, schedule: Q01DX001 (ip), vehicle: other) and 110 % of control under setting [1].
As for `O=NN(CCCl)C(=O)NC1CCC(NC(=O)N(CCCl)N=O)CC1` (stereo not drawn), the T/C (endpoint: mean survival time, dose: 23.0 mg/kg/injection, schedule: Q01DX001 (ip), vehicle: other) was 157 % of control and 193 % of control; the T/C (endpoint: mean survival time, dose: 38.0 mg/kg/injection, schedule: Q01DX001 (oral), vehicle: other) is 124 % of control; the T/C (endpoint: mean survival time, dose: 44.0 mg/kg/injection, schedule: Q01DX001 (ip), vehicle: saline with Tween-80) was 169 % of control; the T/C (endpoint: mean survival time, dose: 48.0 mg/kg/injection, schedule: Q01DX001 (ip), vehicle: other) was 450 % of control and 218 % of control; the T/C (endpoint: mean survival time, dose: 67.0 mg/kg/injection, schedule: Q01DX001 (ip), vehicle: saline with Tween-80) was 178 % of control and 169 % of control; the T/C (endpoint: mean survival time, dose: 84.0 mg/kg/injection, schedule: Q01DX001 (oral), vehicle: other) was 150 % of control and 165 % of control. In addition, the T/C runs as follows: (endpoint: mean survival time, dose: 96.0 mg/kg/injection, schedule: Q01DX001 (ip), vehicle: other) 375 % of control and 594 % of control; (endpoint: mean survival time, dose: 100.0 mg/kg/injection, schedule: Q01DX001 (ip), vehicle: saline with Tween-80) 246 % of control and 238 % of control; (endpoint: mean survival time, dose: 150.0 mg/kg/injection, schedule: Q01DX001 (ip), vehicle: saline with Tween-80) 255 % of control and 263 % of control; (endpoint: mean survival time, dose: 171.0 mg/kg/injection, schedule: Q01DX001 (oral), vehicle: other) 177 % of control and 214 % of control; (endpoint: mean survival time, dose: 191.0 mg/kg/injection, schedule: Q01DX001 (ip), vehicle: other) 475 % of control and 531 % of control; (endpoint: mean survival time, dose: 225.0 mg/kg/injection, schedule: Q01DX001 (ip), vehicle: saline with Tween-80) 438 % of control and 328 % of control. For the same compound, the T/C (endpoint: mean survival time, dose: 319.0 mg/kg/injection, schedule: Q01DX001 (oral), vehicle: other) is 453 % of control and 274 % of control; the T/C (endpoint: mean survival time, dose: 337.0 mg/kg/injection, schedule: Q01DX001 (ip), vehicle: saline with Tween-80) was 507 % of control; the T/C (endpoint: mean survival time, dose: 383.0 mg/kg/injection, schedule: Q01DX001 (ip), vehicle: other) was 340 % of control and 381 % of control; the T/C (endpoint: mean survival time, dose: 638.0 mg/kg/injection, schedule: Q01DX001 (oral), vehicle: other) is 478 % of control and 554 % of control.
In the case of `CC[C@]1(O)C[C@H]2CN(CCc3c([nH]c4ccccc34)[C@@](C(=O)OC)(c3cc4c(cc3OC)N(C=O)[C@H]3[C@@](O)(C(=O)OC)[C@H](OC(C)=O)[C@]5(CC)C=CCN6CC[C@]43[C@@H]65)C2)C1`, the T/C runs as follows: (endpoint: mean survival time, dose: 0.32 mg/kg/injection, schedule: Q01DX001 (ip), vehicle: saline) 112 % of control; (endpoint: mean survival time, dose: 0.75 mg/kg/injection, schedule: Q01DX001 (ip), vehicle: saline) 108 % of control; (endpoint: mean survival time, dose: 1.5 mg/kg/injection, schedule: Q01DX001 (ip), vehicle: saline) 114 % of control; (endpoint: mean survival time, dose: 1.6 mg/kg/injection, schedule: Q01DX001 (ip), vehicle: saline) 109 % of control; (endpoint: mean survival time, dose: 2.25 mg/kg/injection, schedule: Q01DX001 (ip), vehicle: saline) 119 % of control.
`COc1cccc2c1C(=O)c1c(O)c3c(c(O)c1C2=O)C[C@@](O)(C(C)=O)C[C@@H]3OC1CC(N)C(O)C(C)O1` (stereo partly drawn): the T/C by setting is: (endpoint: mean survival time, dose: 3.0 mg/kg/injection, schedule: Q04DX003 (iv), vehicle: water) 216 % of control; (endpoint: mean survival time, dose: 5.0 mg/kg/injection, schedule: Q01DX001 (iv), vehicle: saline) 105 % of control; (endpoint: mean survival time, dose: 5.0 mg/kg/injection, schedule: Q04DX003 (iv), vehicle: water) 121 % of control; (endpoint: mean survival time, dose: 10.0 mg/kg/injection, schedule: Q01DX001 (iv), vehicle: saline) 115 % of control; (endpoint: mean survival time, dose: 14.0 mg/kg/injection, schedule: Q04DX003 (iv), vehicle: water) 160 % of control; (endpoint: mean survival time, dose: 20.0 mg/kg/injection, schedule: Q01DX001 (iv), vehicle: saline) 150 % of control. Under “endpoint: mean survival time, dose: 23.0 mg/kg/injection, schedule: Q04DX003 (iv), vehicle: water”, the T/C was 84 % of control.
Consider `O=NN(CCCl)C(=O)NC1CSCSC1`, for which the T/C is, setting by setting: (endpoint: mean survival time, dose: 2.0 mg/kg/injection, schedule: Q01DX001 (ip), vehicle: other) 106 % of control and 102 % of control; (endpoint: mean survival time, dose: 4.0 mg/kg/injection, schedule: Q01DX001 (ip), vehicle: other) 109 % of control; (endpoint: mean survival time, dose: 4.5 mg/kg/injection, schedule: Q04DX004 (ip), vehicle: saline with Tween-80) 293 % of control; (endpoint: mean survival time, dose: 7.0 mg/kg/injection, schedule: Q04DX004 (ip), vehicle: saline with Tween-80) 443 % of control; (endpoint: mean survival time, dose: 8.0 mg/kg/injection, schedule: Q01DX001 (ip), vehicle: other) 156 % of control and 161 % of control; (endpoint: mean survival time, dose: 11.0 mg/kg/injection, schedule: Q04DX004 (ip), vehicle: saline with Tween-80) 735 % of control. The T/C is, setting by setting: (endpoint: mean survival time, dose: 16.5 mg/kg/injection, schedule: Q01DX001 (ip), vehicle: other) 393 % of control and 311 % of control; (endpoint: mean survival time, dose: 16.5 mg/kg/injection, schedule: Q04DX004 (ip), vehicle: saline with Tween-80) 1060 % of control; under setting [1], 490 % of control and 588 % of control.
For `O=c1[nH]c(=O)n(C2CC(O)C(CO)O2)cc1F` (stereo not drawn), the T/C (endpoint: mean survival time, dose: 400.0 mg/kg/injection, schedule: Q01DX001 (ip), vehicle: saline) was 122 % of control.
On to `O=NN(CCCl)C(=O)NC1CCCC1`, for which the T/C reads like this: (endpoint: mean survival time, dose: 9.0 mg/kg/injection, schedule: Q01DX001 (ip), vehicle: saline) 106 % of control and 100 % of control; (endpoint: mean survival time, dose: 19.0 mg/kg/injection, schedule: Q01DX001 (ip), vehicle: saline) 114 % of control and 119 % of control; (endpoint: mean survival time, dose: 38.0 mg/kg/injection, schedule: Q01DX001 (ip), vehicle: saline) 160 % of control and 182 % of control; (endpoint: mean survival time, dose: 75.0 mg/kg/injection, schedule: Q01DX001 (ip), vehicle: saline) 174 % of control and 202 % of control; (endpoint: mean survival time, dose: 150.0 mg/kg/injection, schedule: Q01DX001 (ip), vehicle: saline) 212 % of control and 265 % of control.
